Activity calls are given as the source filed them. The calls are words filed in the database; no cut-off is given here.
Experiments:
Format in all cases: functional, cell-based
[1] = system: HL-60; test: Anticancer activity against Homo sapiens (human) HL60 cells assessed as inhibition of cell proliferation after 72 hr by MTT assay; conditions: for IC50: HL-60, 72 h
[2] = system: HL-60; test: Anticancer activity against Homo sapiens (human) HL60 cells assessed as abnormal morphological changes after 48 hr by inverted phase contrast microscopic analysis
[3] = system: HCT-116; test: Anticancer activity against Homo sapiens (human) HCT116 cells assessed as inhibition of cell proliferation after 72 hr by MTT assay; conditions: for IC50: HCT-116, 72 h
[4] = system: HCT-116; test: Anticancer activity against Homo sapiens (human) HCT116 cells assessed as reduction in cell number after 48 hr by inverted phase contrast microscopic analysis
[5] = system: HCT-116; test: Anticancer activity against Homo sapiens (human) HCT116 cells assessed as abnormal morphological changes after 48 hr by inverted phase contrast microscopic analysis
[6] = system: HCT-116; test: Anticancer activity against Homo sapiens (human) HCT116 cells assessed as cells with abnormal large number of vacuoles in cytoplasm after 48 hr by inverted phase contrast microscopic analysis

Structure (SMILES) | inhibition [1] | IC50 [1] | Activity [2] | inhibition [3] | IC50 [3] | Activity [4] | Activity [5] | Activity [6]
CCCCn1c[n+](Cc2ccc(C[n+]3cn(CCCC)c4ccccc43)cc2)c2ccccc21 | Dose-dependent effect | 55.7 µM | Active | Dose-dependent effect | 18.7 µM | Active |  | 
CCCn1c[n+](Cc2ccc(C[n+]3cn(CCC)c4ccccc43)cc2)c2ccccc21 | Dose-dependent effect | 49.4 µM | Active | Dose-dependent effect | 1.4 µM |  | Active | 
O=c1[nH]cc(F)c(=O)[nH]1 [FLUOROURACIL] | Dose-dependent effect | 5.4 µM |  | Dose-dependent effect |  |  |  | 
CCn1c[n+](Cc2ccc(C[n+]3cn(CC)c4ccccc43)cc2)c2ccccc21 | Dose-dependent effect | 39.5 µM | Active | Dose-dependent effect | 0.3 µM |  |  | Active

Reference: ChEMBL document CHEMBL3046403, “Synthesis and anticancer activity of para-xylyl linked bis-benzimidazolium salts and respective Ag(I) N-heterocyclic carbene complexes” (Med Chem Res, 2013)
